Drawing on US10722505B2, “Substituted 2,4 diamino-quinoline as new anticancer agents” (GENOSCIENCE PHARMA, priority 2014, dated 2020), this text covers EC50 for one molecule.

Structures can show the parent of a compound that is named as a salt.

Format in all cases: cell-based
In test [1] the test system is PBMC (peripheral blood mononuclear cell). Put plainly: CellTiter-Glo growth inhibition assay, PBMC. As to conditions: 72 h. As for the experimental part: (§1) All cell lines were maintained in medium containing 1% penicillin-streptomycin (Dutscher, P06-07100) and 10% Fetal Bovine Serum (Gibco, W3387L) except 20% for KG-1 cell line and PBMC, and cultured at 37° C. with 5% CO2.
PBMC was maintained in RPMI 1640 medium medium (Dutscher, L0498).
(§2) Cell viability was measured using the CellTiter-Glo® luminescent cell viability assay as described by the manufacturer (Promega, Ref G7571) using an Infinite F200Pro luminometer (Tecan). Briefly, for adherent cells, cells were plated onto 96-well plates (white with clear bottom) in 90 μL of media per well and were allowed to grow overnight before the assay. For cells growing in suspension, cells were plated onto 96-well plates immediately before the assay.
(§3) Compounds were added at different concentrations to each well, and cell cultures were incubated for 72 h. Vehicle (H2O) was used as a control, and all compounds were tested in a constant percentage of H2O. After addition of 100 μL of CellTiter-Glo®, luminescence was measured using an Infinite F200Pro (Tecan). EC50 values were determined as the dose of compound required to reduce luminescent values to 50% of the signal obtained for untreated cell cultures. The experimental data were analyzed using a computer program, Graphpad Prism v5 (GraphPad Software, Inc. La Jolla, Calif.). […]
(In ATP-based viability assays light output follows the ATP content of the culture.)

For a further test, the system named is A375 cell line. Nature of the test: CellTiter-Glo growth inhibition assay, A375. As to conditions: Homo sapiens, A-375; A375, malignant melanoma, 72 h. As to the method:
as §1
(§4) HepG2, Huh7, HCT-116, MDA-MB-231 and A375 cell lines were cultured in Dulbecco's modified Eagle's medium (Dutscher, L0103).
as §2, §3

The test system of a further test is MDA-MB-231 cell line. Nature of the test: CellTiter-Glo growth inhibition assay, MDA-MB-231. As to conditions: Homo sapiens; MDA-MB-231, breast adenocarcinoma, 72 h. As to the method:
as §1, §4, §2, §3

In another test the test system is Hep3B-Luc cell line. Put plainly: CellTiter-Glo growth inhibition assay, Hep3B-Luc. The settings on record: Homo sapiens, Hep 3B-Luc, 72 h. As to the method:
Before compound treatment, the compound was dissolved in H2O to make a 10 mM stock solution. The working solutions (5 folds final concentrations) were then prepared with MEM medium (Gibco, 1128319) containing 10% Fetal Bovine Serum (Gibco, 10099141).
Hep3B-Luc cell line (luciferase transfected human liver carcinoma cell line for orthotopic tumor model) was cultured in MEM Medium supplemented with 10% v/v Fetal Bovine Serum (FBS), 1% Penicillin-Streptomycin and maintained at 37° C. with 5% CO2. 800 cells were plated onto 384-well flat clear bottom white (Corning, 3707).
Cells in log-phase are collected and counted. Cell suspensions are added to each well of 384-well plate at 800 cells per well (total volume 40 μl). The margin wells are filled with PBS buffer. Test compound at various concentrations are added in duplicates (add 10 μl 5× compound solutions to the plate). The assay plate is incubated for 72 h in 37° C./5% CO2 incubator. Cell viability was measured using the CellTiter-Glo® luminescent cell viability assay as described by the manufacturer (Promega, Ref G7571). After addition of 100 μL of CellTiter-Glo® reactifs solution, luminescence was measured using a PHERAstar Plus luminometer. Data were recorded by PHERAstar Plus, Data acquisition and analysis were performed using Microsoft Excel program and GraphPad Prism v.6 software.

A further test has as its system CAKI-1 cell line. Nature of the test: CellTiter-Glo growth inhibition assay, CAKI-1. The settings on record: Homo sapiens, CAKI-1, 72 h. As to the method:
CAKI-1 and 786-0 cell lines were maintained in RPMI 1640 medium (Dutscher, L0498) containing 1% penicillin-streptomycin (Dutscher, P06-07100) and 10% Fetal Bovine Serum (Gibco, W3387L) and cultured at 37° C. with 5% CO2.
Cell viability was measured using the CellTiter-Glo® luminescent cell viability assay as described by the manufacturer (Promega, Ref G7571) using an Infinite F200Pro luminometer (Tecan). Briefly, cells were plated onto 96-well plates (white with clear bottom) in 90 μL of media per well and were allowed to grow overnight before the assay.
Compounds 2-3 and two reference compounds (Sorafenib and Sunitinib) were added at different concentrations to each well, and cell cultures were incubated for 72 h. For compound 2-3 analysis, H2O was used as a negative control (=untreated) and all concentrations were tested in a constant percentage of H2O. For Sorafenib and Sunitinib analysis, DMSO was used as a negative control (=untreated) and all concentrations were tested in a constant percentage of DMSO. 72 h after incubation of compounds, 100 μL of CellTiter-Glo® were added to each well and luminescence was measured using an Infinite F200Pro (Tecan). EC50 values were determined as the dose of compound required to reduce luminescent values to 50% of the signal obtained for untreated cell cultures. The experimental data were analyzed using a computer program, Graphpad Prism v5 (GraphPad Software, Inc. La Jolla, Calif.). All experiments were at least done in triplicate and repeated at least three independent times.

Test [2] has as its system CPP30 liver metastatic CRC patient-derived cells. Nature of the test: CellTiter-Glo growth inhibition, liver metastatic CRC patient-derived cells CPP30. The settings on record: Homo sapiens; CPP30, 72 h. From the text:
Patient derived liver metastasis cells (CPP19, 30, 36 and CPP45—see table 1 for clinical descriptions) were maintained in complete DMEM (Gibco) with 10% FBS. Cells were obtained from biopsies provided by CHU-Caremeau (Nimes, France) within an approved protocol. Signed informed consents were obtained from patients prior to samples acquisition in accordance with all ethical and legal aspects. Tumors were washed, minced into fragments (<2 mm^3) and digested with liberase H (0.26 U/mL, Roche) resuspended in Accumax (Sigma-Aldrich). After 2 hours at 37° C., cell suspension was filtered through a […] to obtain a single cell suspension and plated in DMEM medium, supplemented with FBS, glutamine, antibiotics and non-essential aminoacids. When a monolayer of patient-derived tumor cells was formed, cells were detached using trypsin/EDTA and resuspended in DMEM with 10% FBS (for adherent cells) or defined M11 media (for sphere formation). Cells were cultured in a humidified atmosphere at 37° C. and 5% CO2.
Cells were plated at 10^4 cells per well in P96 well plates in DMEM with 10% FBS. After 24 hours, cells were treated with compound 2-3 and cell viability was assessed 72 h post-treatment by CellTiter-Glo® Luminescent Cell Viability Assay (Promega). EC50 were calculated using GraphPad Prism Software v6 (Graphpad Software, Inc La Jolla, Calif.). […]

A word on the EC50: it is the concentration at which the effect is half-maximal. As for `CC(C)(C)NC1CCN(c2cc(NCc3ccc(Cl)cc3)nc3ccccc23)CC1` [Compound 2-3, 2-(4-chlorobenzylamino)-4-(4-tert-butylaminopiperidin-1-yl)-quinoline hydrochloride salt], the concentration giving a half-maximal response (EC50) is 1900 nM in test [1]; 1000 nM with A375 cell line; 2000 nM with MDA-MB-231 cell line; 1100 nM in the test on Hep3B-Luc cell line; 1400 nM in the test on CAKI-1 cell line; 1220 nM in test [2].
